Results published in patent publication US8487093B2, “β-lactamase inhibitors” (Merck Sharp & Dohme Corp., priority 2008, dated 2013).
Like-named read-outs stand apart in the source and are kept apart here.

Columns and labels:
AmpC (P. aeruginosa) = AmpC (P. aeruginosa) (Pseudomonas aeruginosa (strain ATCC 15692 / DSM 22644 / CIP 104116 / JCM 14847 / LMG 12228 / 1C / PRS 101 / PAO1), UniProt P24735); experiment: biochemical
Method: The Class C enzyme activities were measured in the presence of the test inhibitor in spectrophotometric assay against the commercially available substrate, nitrocefin. The enzyme AmpC (P. aeruginosa.), and the substrate, were dissolved in 100 mM KH2PO4 buffer (pH 7). The buffer also contains 0.005% BSA. The test inhibitor was dissolved in DMSO and diluted 1:20 in the assay, resulting in a final concentration range of 50 μM to 0.0002 μM. In a 96-well microplate, the test inhibitor was incubated with the beta-lactamase enzyme for 40 minutes at ambient temperature, the substrate solution was added, and the incubation continued for another 40 minutes. […] The IC50 value was determined from semi logarithmic plots of enzyme inhibition versus inhibitor concentration, with a curve generated using a 4-parameter fit.

KPC-2 (K. pneumoniae) = KPC-2 (K. pneumoniae) (Klebsiella pneumoniae, UniProt Q9F663); experiment: biochemical; conditions: Table 3; read-out: K.p. KPC-2 IC50
[1] = Table 3, read-out: P.a. AmpC IC50

Sequence of AmpC (P. aeruginosa) (P24735 27-397): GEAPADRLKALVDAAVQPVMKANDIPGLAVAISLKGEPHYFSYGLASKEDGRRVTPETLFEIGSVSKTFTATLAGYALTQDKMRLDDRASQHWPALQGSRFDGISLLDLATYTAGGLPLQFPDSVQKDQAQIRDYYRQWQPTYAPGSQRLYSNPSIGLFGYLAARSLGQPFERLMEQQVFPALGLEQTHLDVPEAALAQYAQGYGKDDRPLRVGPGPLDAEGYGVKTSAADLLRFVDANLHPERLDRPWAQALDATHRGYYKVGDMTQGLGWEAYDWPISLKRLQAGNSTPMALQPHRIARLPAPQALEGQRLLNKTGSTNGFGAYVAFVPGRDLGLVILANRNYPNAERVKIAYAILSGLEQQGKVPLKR
Sequence of KPC-2 (K. pneumoniae) (Q9F663 25-293 limits assumed): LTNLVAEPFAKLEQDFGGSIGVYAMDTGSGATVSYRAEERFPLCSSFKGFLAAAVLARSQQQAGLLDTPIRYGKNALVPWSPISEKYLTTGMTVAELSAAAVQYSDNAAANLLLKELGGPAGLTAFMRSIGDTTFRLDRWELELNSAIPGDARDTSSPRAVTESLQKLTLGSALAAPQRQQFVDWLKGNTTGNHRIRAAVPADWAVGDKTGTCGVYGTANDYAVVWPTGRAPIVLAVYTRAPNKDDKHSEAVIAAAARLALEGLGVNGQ

SMILES	IC50 (AmpC (P. aeruginosa); [1]) [nM]	IC50 (KPC-2 (K. pneumoniae)) [nM]	IC50 (AmpC (P. aeruginosa)) [nM]
N[C@@H]1CCN(C(=O)[C@@H]2CC[C@@H]3CN2C(=O)N3OS(=O)(=O)O)C1 [Example 54]	840	3200	
N[C@H]1CCN(C(=O)[C@@H]2CC[C@@H]3CN2C(=O)N3OS(=O)(=O)O)C1 [Example 55]	1400	1500	
CN(C)C1CCN(C(=O)[C@@H]2CC[C@@H]3CN2C(=O)N3OS(=O)(=O)O)C1 (some centres unmarked) [Example 56]	270	1600	
NCc1ccc(NC(=O)[C@@H]2CC[C@@H]3CN2C(=O)N3OS(=O)(=O)O)cc1 [Example 57]	20	72	
NCc1cccc(NC(=O)[C@@H]2CC[C@@H]3CN2C(=O)N3OS(=O)(=O)O)c1 [Example 58]		104	34
NCc1ccccc1NC(=O)[C@@H]1CC[C@@H]2CN1C(=O)N2OS(=O)(=O)O [Example 59]		109	292
CNCc1ccc(NC(=O)[C@@H]2CC[C@@H]3CN2C(=O)N3OS(=O)(=O)O)cc1 [Example 60]	18	56	
CNCc1cccc(NC(=O)[C@@H]2CC[C@@H]3CN2C(=O)N3OS(=O)(=O)O)c1 [Example 61]		78	22
CN(C)Cc1ccc(NC(=O)[C@@H]2CC[C@@H]3CN2C(=O)N3OS(=O)(=O)O)cc1 [Example 62]	18	54	
O=C(Nc1ccc(CN2CCCC2)cc1)[C@@H]1CC[C@@H]2CN1C(=O)N2OS(=O)(=O)O [Example 63]	22	85	
O=C(Nc1ccc2c(c1)CNC2)[C@@H]1CC[C@@H]2CN1C(=O)N2OS(=O)(=O)O [Example 65]	16	60	
O=C(Nc1ccc2c(c1)CCN2)[C@@H]1CC[C@@H]2CN1C(=O)N2OS(=O)(=O)O [Example 66]	56	41	
O=C(O)c1ccc(NC(=O)[C@@H]2CC[C@@H]3CN2C(=O)N3OS(=O)(=O)O)cc1 [Example 67]	11	10	
NC(=O)c1ccc(NC(=O)[C@@H]2CC[C@@H]3CN2C(=O)N3OS(=O)(=O)O)cc1 [Example 68]	7	30	
NS(=O)(=O)c1ccc(NC(=O)[C@@H]2CC[C@@H]3CN2C(=O)N3OS(=O)(=O)O)cc1 [Example 69]	7	22	
NC(=O)c1cccc(NC(=O)[C@@H]2CC[C@@H]3CN2C(=O)N3OS(=O)(=O)O)c1 [Example 70]		26	3
O=C(Nc1cccnc1)[C@@H]1CC[C@@H]2CN1C(=O)N2OS(=O)(=O)O [Example 71]		42	37
O=C(Nc1ccccn1)[C@@H]1CC[C@@H]2CN1C(=O)N2OS(=O)(=O)O [Example 72]	1.2	36	
O=C(Nc1cc(N2CCCC2)nc(N2CCCC2)c1)[C@@H]1CC[C@@H]2CN1C(=O)N2OS(=O)(=O)O [Example 73]	515	130	
Nc1cccc(NC(=O)[C@@H]2CC[C@@H]3CN2C(=O)N3OS(=O)(=O)O)n1 [Example 74]	8	11	

SMILES	IC50 (AmpC (P. aeruginosa); [1]) [nM]	IC50 (KPC-2 (K. pneumoniae)) [nM]	IC50 (AmpC (P. aeruginosa)) [nM]
CN(C)c1ccnc(NC(=O)[C@@H]2CC[C@@H]3CN2C(=O)N3OS(=O)(=O)O)c1 [Example 75]	3	410	
NCc1ccnc(NC(=O)[C@@H]2CC[C@@H]3CN2C(=O)N3OS(=O)(=O)O)c1 [Example 76]	2	1300	
NCc1ccc(NC(=O)[C@@H]2CC[C@@H]3CN2C(=O)N3OS(=O)(=O)O)nc1 [Example 77]	3	42	
O=C(Nc1cc(C2CCNCC2)ccn1)[C@@H]1CC[C@@H]2CN1C(=O)N2OS(=O)(=O)O [Example 78]	0.8	470	
O=C(Nc1cccc(C2CCNCC2)n1)[C@@H]1CC[C@@H]2CN1C(=O)N2OS(=O)(=O)O [Example 79]	270	24	
O=C(Nc1ccc(N2CCNCC2)cn1)[C@@H]1CC[C@@H]2CN1C(=O)N2OS(=O)(=O)O [Example 80]	2	15	
O=C(Nc1ccc(N2CCOCC2)cn1)[C@@H]1CC[C@@H]2CN1C(=O)N2OS(=O)(=O)O [Example 81]	5	17	
O=C(Nc1ccc(N2CCCC2)cn1)[C@@H]1CC[C@@H]2CN1C(=O)N2OS(=O)(=O)O [Example 82]	4	10	
O=C(Nc1cnccn1)[C@@H]1CC[C@@H]2CN1C(=O)N2OS(=O)(=O)O [Example 83]	6	58	
O=C(Nc1ccncn1)[C@@H]1CC[C@@H]2CN1C(=O)N2OS(=O)(=O)O [Example 84]	0.8	55	
O=C(Nc1ccnc(N2CCNCC2)n1)[C@@H]1CC[C@@H]2CN1C(=O)N2OS(=O)(=O)O [Example 85]	260	20	
Cn1ccnc1NC(=O)[C@@H]1CC[C@@H]2CN1C(=O)N2OS(=O)(=O)O [Example 86]	240	135	
CN1CCN=C1NC(=O)[C@@H]1CC[C@@H]2CN1C(=O)N2OS(=O)(=O)O [Example 87]	200	840	
O=C(Nc1nccs1)[C@@H]1CC[C@@H]2CN1C(=O)N2OS(=O)(=O)O [Example 88]	1.8	36	
O=C(Nc1nc2c(s1)CNCC2)[C@@H]1CC[C@@H]2CN1C(=O)N2OS(=O)(=O)O [Example 89]	10	39	
O=C(O[C@H]1CCCNCC1)[C@@H]1CC[C@@H]2CN1C(=O)N2OS(=O)(=O)O [Example 91]	83	6	
O=C(O[C@@H]1CCCNCC1)[C@@H]1CC[C@@H]2CN1C(=O)N2OS(=O)(=O)O [Example 92]	33000	6400	
O=C(OC1CCNCC1)[C@@H]1CC[C@@H]2CN1C(=O)N2OS(=O)(=O)O [Example 93]		9	170
O=C(O[C@@H]1CCNC1)[C@@H]1CC[C@@H]2CN1C(=O)N2OS(=O)(=O)O [Example 94]		40	3000
O=C(O[C@H]1CCNC1)[C@@H]1CC[C@@H]2CN1C(=O)N2OS(=O)(=O)O [Example 95]		21	210

SMILES	IC50 (AmpC (P. aeruginosa); [1]) [nM]	IC50 (KPC-2 (K. pneumoniae)) [nM]	IC50 (AmpC (P. aeruginosa)) [nM]
O=C(OC1CNC1)[C@@H]1CC[C@@H]2CN1C(=O)N2OS(=O)(=O)O [Example 96]	600	18	
O=C(O[C@@H]1CCNC[C@@H]1F)[C@@H]1CC[C@@H]2CN1C(=O)N2OS(=O)(=O)O [Example 97]	49	26	
O=C(O[C@H]1CCNC[C@H]1F)[C@@H]1CC[C@@H]2CN1C(=O)N2OS(=O)(=O)O [Example 98]	46	9	
O=C(O[C@@H]1CCNC[C@H]1F)[C@@H]1CC[C@@H]2CN1C(=O)N2OS(=O)(=O)O [Example 99]	40	8	
O=C(O[C@H]1CCNC[C@@H]1F)[C@@H]1CC[C@@H]2CN1C(=O)N2OS(=O)(=O)O [Example 100]	33	4	
O=C(O[C@H]1CNCC[C@@H]1F)[C@@H]1CC[C@@H]2CN1C(=O)N2OS(=O)(=O)O [Example 101]		15	81
O=C(O[C@H]1CNCC[C@H]1F)[C@@H]1CC[C@@H]2CN1C(=O)N2OS(=O)(=O)O [Example 102]		4	76
O=C(O[C@@H]1CNC[C@@H]1F)[C@@H]1CC[C@@H]2CN1C(=O)N2OS(=O)(=O)O [Example 103]		3	39
O=C(O[C@H]1CNC[C@H]1F)[C@@H]1CC[C@@H]2CN1C(=O)N2OS(=O)(=O)O [Example 104]		24	38
O=C(O[C@@H]1CNC[C@H]1F)[C@@H]1CC[C@@H]2CN1C(=O)N2OS(=O)(=O)O [Example 105]		13	200
O=C(O[C@H]1CNC[C@@H]1F)[C@@H]1CC[C@@H]2CN1C(=O)N2OS(=O)(=O)O [Example 106]		10	200
O=C(O[C@H]1CNOC1)[C@@H]1CC[C@@H]2CN1C(=O)N2OS(=O)(=O)O [Example 107]	39	11	
O=C(O[C@@H]1CNOC1)[C@@H]1CC[C@@H]2CN1C(=O)N2OS(=O)(=O)O [Example 108]	62	11	
O=C(OC1CNNC1)[C@@H]1CC[C@@H]2CN1C(=O)N2OS(=O)(=O)O [Example 109]	700	62	
NCCOC(=O)[C@@H]1CC[C@@H]2CN1C(=O)N2OS(=O)(=O)O [Example 110]	610	30	
O=C(OCCN1CCCCC1)[C@@H]1CC[C@@H]2CN1C(=O)N2OS(=O)(=O)O [Example 111]	1200	20	
O=C(OCCC1CCNCC1)[C@@H]1CC[C@@H]2CN1C(=O)N2OS(=O)(=O)O [Example 112]		13	165
CC1(COC(=O)[C@@H]2CC[C@@H]3CN2C(=O)N3OS(=O)(=O)O)CCNCC1 [Example 113]	36	8	
